Patent publication US10077239B2, “Crystalline forms of a hepatitis B antiviral agent” (NOVIRA THERAPEUTICS, INC, priority 2015, dated 2018)
Entries after “also recorded” stand apart in the source; their conditions may differ. Like-named read-outs stand apart in the source and are kept apart here.

Key:
Format in all cases: physicochemical
[1] = Solubility of the crystalline forms
[2] = pH solubility profile
[3] = Hygroscopicity by dynamic vapor sorption (DVS); conditions: for Hydrophilicity / hygroscopicity rating from DVS / Hysteresis between initial and final state, DVS: 37° C.; for Water (moisture) uptake, DVS: from 0% to 100% RH at 37° C.
Method: DVS The temperature and RH are pre-set according to the initial temperature and RH. Method at 37° C.: • Equilibrating 20 min at 50% • Set from 50% to 0% • Equilibrating 20 min at 0% RH • Set from 0% to 100% by step of 10% RH (50% RH per hour) • 3 hours at 100% RH • From 100% RH to 0% RH by step of 10% RH (−50% RH per hour) • Equilibrating 20 min at 0% RH • Set from 0% to 50% • Equilibrating 20 min at 50% RH Particle Size Distribution (Malvern)

[4] = Thermal analysis (DSC/TGA/hot stage): decomposition
Method: Thermal Analysis (DSC/TGA/Hot Stage) An accurate amount of compound (mg scale) is set up in 40 μL Al crucible with perforated lids. The heating rate is 20° C./min in a nitrogen gas flow. The heating ranged from 30 to 400° C.

[5] = Stability under simulated storage conditions: XRPD under temperature and relative humidity; conditions: for XRPD under RH: phase transition: 10% to 80% RH at 25° C.
Method: Stability Under Simulated Storage Conditions: XRPD The stability of crystalline Forms I and XVI was characterized by XRPD under temperature and relative humidity conditions that stimulate potential storage conditions. XRPD XRPD was performed on a PHILIPS PANalytical, X'Pert Pro. diffractometer The experimental conditions are the following: • Configuration Bragg-Brentano: θ−θ • Source: Cu with Kα1 at λ=1.5406 Å. • The power supply works at 45 kV and 40 mA. • Detector: PSD X'Celerator in scanning mode • Sample temperature: room temperature • Angular variation: from 2θ=3° to 45° • Step size [° 2θ]: 0.008 • Scan step time (in s): 13 39 • Duration: 20 min according to the diffraction intensity A few mg of sample were prepared on a silicon plate without any special treatment other than a slight pressure to obtain a flat and homogeneous surface for reproducible and repeatable results.

[6] = Particle size distribution (Malvern laser diffraction); conditions: for Particle size D10 after sonication / Particle size D50 after sonication / Particle size D90 after sonication: after ultrasound treatment (40 seconds); for Particle size D10 / Particle size D50 / Particle size D90: without ultrasound treatment
Method: • Equilibrating 20 min at 50% • Set from 50% to 0% • Equilibrating 20 min at 0% RH • Set from 0% to 100% by step of 10% RH (50% RH per hour) • 3 hours at 100% RH • From 100% RH to 0% RH by step of 10% RH (−50% RH per hour) • Equilibrating 20 min at 0% RH • Set from 0% to 50% • Equilibrating 20 min at 50% RH Particle Size Distribution (Malvern) A total of 3 measurements by batch were made to ensure repeatable and reproducible results. • Dispersant: Silicon oil. A good dispersion is observed in this media and Compound (1) is not soluble in silicon oil. • Stirring: 2000 rpm • lens: 300RF • Analysis model: polydisperse • Presentation code: 3OAE • Number of measurement sweeps: 5000 • Density: 1.000 g·cm^3 • With or without stage of ultrasound

[7] = Stability under simulated storage conditions: XRPD under temperature and relative humidity; conditions: for XRPD under temperature: phase transition: temperature increased from 25° C. to 160° C.

pH solubility profile [2] | Hysteresis between initial and final state, DVS [3] | Water (moisture) uptake, DVS [3] | Decomposition (degradation) temperature [4] | XRPD under RH: phase transition [5] | Particle size D10 after sonication [6] | Particle size D50 after sonication [6] | Particle size D90 after sonication [6] | Particle size D10 [6] | Particle size D50 [6] | Particle size D90 [6] | XRPD under temperature: phase transition [7] | Compound | Hydrophilicity / hygroscopicity rating from DVS [3] | also measured
– | – | – | – | – | – | – | – | – | – | – | – | O=C(Nc1cc(F)c(F)c(F)c1)c1ccc(F)c(S(=O)(=O)N2CCC(O)CC2)c1 [Compound (1), 4-fluoro-3-((4-hydroxypiperidin-1-yl)sulfonyl)-N-(3,4,5-trifluorophenyl)benzamide] | – | Solubility in silicon oil ([1]; silicon oil, dispersant of the particle size measurement): not soluble
Slightly soluble | No hysteresis | 0.8% | above 300 °C | No transition phase from 10% | 4.2 μm | 20.0 μm | 37.5 μm | 9.8 μm | 23.7 μm | 45.8 μm | no phase transition | O=C(Nc1cc(F)c(F)c(F)c1)c1ccc(F)c(S(=O)(=O)N2CCC(O)CC2)c1 [Form XVI, 4-fluoro-3-((4-hydroxypiperidin-1-yl)sulfonyl)-N-(3,4,5-trifluorophenyl)benzamide] | slightly hydrophilic; also recorded: low hydrophilicity | Solubility in MTBE ([1]; MTBE, 25° C.): In MTBE <2 g/L at 25 °C; Solubility in water ([1]; water, 25° C.): In Water <2 g/L at 25 °C; Hydrophilicity / hygroscopicity rating from DVS ([3]; listed as FXVI): 100% ⋄ slightly hydrophilic.; Water (moisture) uptake, DVS ([3]; listed as FXVI): Uptake of 0.8% from 0 to; Decomposition (degradation) temperature ([4]; listed as FXVI): Decomposition >300 °C; Impact of relative humidity on the crystalline phase (XRPD) ([5]; RH 7-30-90% at 25 or 45° C.): no impact; Stability of the crystalline form with respect to temperature and relative humidity ([5]; XRPD monitoring at higher temperatures and varying humidity): high stability; also recorded: maintains its crystallinity; also recorded: highly stable; Particle size D10 after sonication ([6]; listed as FXVI): D10 = 4.2 μm; Particle size D50 after sonication ([6]; listed as FXVI): D50 = 20.0 μm; Particle size D90 after sonication ([6]; listed as FXVI): D90 = 37.5 μm; XRPD under temperature: phase transition ([7]; listed as FXVI): No transition phase until
Slightly soluble | No hysteresis | 1.5% | above 300 °C | No transition phase from 10% | 4.7 μm | 14.2 μm | 66.9 μm | 5.8 μm | 69.1 μm | 342.6 μm | sensitive to the temperature | O=C(Nc1cc(F)c(F)c(F)c1)c1ccc(F)c(S(=O)(=O)N2CCC(O)CC2)c1 [Form I, 4-fluoro-3-((4-hydroxypiperidin-1-yl)sulfonyl)-N-(3,4,5-trifluorophenyl)benzamide] | slightly hydrophilic; also recorded: low hydrophilicity | solubility ([1]; organic solvent or mixture, MTBE, 25° C., read-out: Solubility in MTBE): < 2000 µg/mL; solubility ([1]; water, 25° C., read-out: Solubility in water): < 2000 µg/mL; Hydrophilicity / hygroscopicity rating from DVS ([3]; listed as FI): 100% ⋄ slightly hydrophilic.; Decomposition (degradation) temperature ([4]; listed as FI): Decomposition >300 °C; Impact of relative humidity on the crystalline phase (XRPD) ([5]; RH 7-30-90% at 25 or 40° C.): no impact; Particle size D10 after sonication ([6]; listed as FI): D10 = 4.7 μm; Particle size D50 after sonication ([6]; listed as FI): D50 = 14.2 μm; Particle size D90 after sonication ([6]; listed as FI): D90 = 66.9 μm; Temperature from which the phase transition starts (XRPD) ([7]; heating from 25° C. to 160° C.): 100 °C; Temperature at which the phase transition is complete (XRPD) ([7]; heating from 25° C. to 160° C., not reversible): 160 °C; XRPD under temperature: phase transition ([7]; listed as FI): Complete transition towards
